This is an account of results in publication PMC9574867, “Discovery and Characterization of Synthesized and FDA-Approved Inhibitors of Clostridial and Bacillary Collagenases” (Journal of Medicinal Chemistry, 2022).

A short description of series [1]: in vitro. As to conditions: dog, MDCK II cells (Madin–Darby canine kidney II).
Series [2] in a line: in vitro. As to conditions: human, HEK293 cells (embryonal kidney).
In another series the target is ColA-CU (Bacillus cereus, UniProt Q81BJ6). Briefly: biochemical. As to conditions: 100 μM; read-out: Percent inhibition of ColA-CU. Type of series: biochemical, B. cereus strain ATCC14579.
Series [3] has as its system NHDF cells infected with B. cereus. The series is described as follows: NHDF infection model, cell morphology/attachment and fibrillar collagen (picrosirius red). Format: cell-based, human. The following applies: B. cereus infection, 5 h.
Series [4] can be described thus: in vitro. The following applies: human, HepG2 cells (hepatocellular carcinoma).
For a further series, the target named is HDAC-3 (Homo sapiens, UniProt O15379). Briefly: Human off-target inhibition, HDAC-3. Format: biochemical. The protocol: (§1) To assess the selectivity of the compounds over human MMPs and on other bacterial collagenases, selected compounds were tested against ColG-CU and ColH-PD from C. histolyticum and ColA-CU from B. cereus strain ATCC14579. In addition, the compounds were tested on catalytic domains of three human MMPs, which are characterized by different depths of the S1′ binding pocket (MMP-1 (shallow), −2 (intermediate), and −3 (deep)). They were also tested against other important human off-targets, which are involved in gene expression and the processing of TNF-α; these include HDAC-3, -8, TACE (ADAM-17),[33],[34] and COX-1.

A further series concerns the target ColQ1-CU (Bacillus cereus, UniProt B9J3S4). Briefly: biochemical. More on the design: species or system B. cereus strain Q1.
The next series deals with ColG-CU (Hathewaya histolytica, UniProt Q9X721). The series is described as follows: biochemical. Type of series: biochemical, C. histolyticum. As to conditions: 100 μM; read-out: Percent inhibition of ColG-CU.
In series [5] the test system is B. cereus AH187 infection. Type of series: in vivo, Galleria mellonella. As to conditions: for Survival of infected larvae vs control without inhibitor: 37 °C, 3 days.
The next series addresses TACE (ADAM-17) (Homo sapiens, UniProt P78536). The series is described as follows: Human off-target inhibition, TACE. Type of series: biochemical. The protocol: as §1
The next series has as its target T1, MMP-2 (Homo sapiens, UniProt P08253).
T1 construct: catalytic domains of three human MMPs; purchased Sigma-Aldrich
Briefly: MMP inhibition assay, MMP-2. Type of series: biochemical. The protocol: as §1
(§2) The MMP inhibition assay (Sigma-Aldrich, Saint Louise, MO) was performed as previously reported and in accordance with the manufacturer’s instructions. The fluorescence signals were measured in a CLARIOstar plate reader (BMG LABTECH, Ortenberg, Germany) at a concentration of 100 μM.

For the next series, the target named is T2, HDAC-8 (Homo sapiens, UniProt Q9BY41).
T2 sequence (Q9BY41 1-377): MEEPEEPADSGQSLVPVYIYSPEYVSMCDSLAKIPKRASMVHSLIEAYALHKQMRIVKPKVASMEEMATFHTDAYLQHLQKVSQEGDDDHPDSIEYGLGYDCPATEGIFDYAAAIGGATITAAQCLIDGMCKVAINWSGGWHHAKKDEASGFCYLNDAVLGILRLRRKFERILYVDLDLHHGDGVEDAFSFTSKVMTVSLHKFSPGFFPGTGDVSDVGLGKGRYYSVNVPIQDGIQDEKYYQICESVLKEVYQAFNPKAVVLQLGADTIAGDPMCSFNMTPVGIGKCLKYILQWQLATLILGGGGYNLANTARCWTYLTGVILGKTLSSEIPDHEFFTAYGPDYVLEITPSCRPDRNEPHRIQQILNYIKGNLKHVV
The series is described as follows: Human off-target inhibition, HDAC-8. Type of series: biochemical. How it is done: as §1

The test system of series [6] is B. cereus collagenases released in the NHDF infection model. Format: cell-based, B. cereus AH187.
For the next series, the target named is T3, MMP-1 (Homo sapiens, UniProt P03956).
T3 construct: catalytic domains of three human MMPs; purchased Sigma-Aldrich
T3 sequence (P03956 98-276 limits assumed): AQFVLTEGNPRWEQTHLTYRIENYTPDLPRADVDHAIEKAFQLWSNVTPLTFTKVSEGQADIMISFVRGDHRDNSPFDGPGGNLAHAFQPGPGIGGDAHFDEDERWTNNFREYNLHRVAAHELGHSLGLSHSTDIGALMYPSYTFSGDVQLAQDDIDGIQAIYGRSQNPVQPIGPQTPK
The series is described as follows: MMP inhibition assay, MMP-1. Type of series: biochemical. How it is done: as §1, §2

The next series has as its target T4, MMP-3 (Homo sapiens, UniProt P08254).
T4 construct: catalytic domains of three human MMPs; purchased Sigma-Aldrich
Briefly: MMP inhibition assay, MMP-3. Type of series: biochemical. How it is done:
as §1, §2

In a further series the target is COX-1 (Homo sapiens, UniProt P23219). The series is described as follows: Human off-target inhibition, COX-1. Type of series: biochemical. The protocol: as §1
The target of a further series is ColH-PD (Hathewaya histolytica, UniProt Q46085). The series is described as follows: biochemical. Format: biochemical, C. histolyticum. As to conditions: 100 μM; read-out: Percent inhibition of ColH-PD.

Read-outs that look alike come from different tables or passages of the source. A value given as a limit tells only on which side of the number the result lay.

Chain of ColQ1-CU (B9J3S4 94-765 limits assumed): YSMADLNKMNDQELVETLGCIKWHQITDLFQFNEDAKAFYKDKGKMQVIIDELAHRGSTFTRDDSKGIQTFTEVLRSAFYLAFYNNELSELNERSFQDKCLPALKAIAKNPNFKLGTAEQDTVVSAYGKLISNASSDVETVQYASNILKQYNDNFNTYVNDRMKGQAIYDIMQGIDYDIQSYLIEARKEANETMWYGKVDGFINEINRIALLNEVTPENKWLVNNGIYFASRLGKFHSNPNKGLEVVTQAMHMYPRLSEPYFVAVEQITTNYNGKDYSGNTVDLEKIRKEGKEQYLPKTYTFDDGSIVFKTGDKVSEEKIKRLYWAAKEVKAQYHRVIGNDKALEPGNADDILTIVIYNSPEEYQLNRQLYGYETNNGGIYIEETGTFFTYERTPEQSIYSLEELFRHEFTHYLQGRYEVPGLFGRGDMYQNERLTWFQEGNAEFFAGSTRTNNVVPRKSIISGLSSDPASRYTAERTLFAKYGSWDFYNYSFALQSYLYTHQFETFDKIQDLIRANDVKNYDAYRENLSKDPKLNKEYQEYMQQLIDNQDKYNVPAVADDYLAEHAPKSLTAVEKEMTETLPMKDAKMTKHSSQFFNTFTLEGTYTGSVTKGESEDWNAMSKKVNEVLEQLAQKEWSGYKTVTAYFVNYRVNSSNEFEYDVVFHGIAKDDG
Chain of HDAC-3 (O15379 whole entry, the tested form may be a part): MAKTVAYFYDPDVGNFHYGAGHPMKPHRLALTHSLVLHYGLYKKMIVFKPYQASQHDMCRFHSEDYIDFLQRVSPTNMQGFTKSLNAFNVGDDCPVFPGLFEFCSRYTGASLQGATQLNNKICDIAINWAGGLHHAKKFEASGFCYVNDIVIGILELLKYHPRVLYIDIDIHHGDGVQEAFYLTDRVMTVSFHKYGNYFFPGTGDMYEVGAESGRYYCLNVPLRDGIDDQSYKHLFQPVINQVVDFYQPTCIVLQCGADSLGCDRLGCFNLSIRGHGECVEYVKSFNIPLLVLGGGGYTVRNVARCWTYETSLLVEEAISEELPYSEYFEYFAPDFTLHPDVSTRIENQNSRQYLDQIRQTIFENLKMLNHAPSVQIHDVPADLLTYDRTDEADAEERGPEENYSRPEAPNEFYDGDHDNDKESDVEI
Chain of HDAC-3 (Q9Y618 395-489 partner limits assumed): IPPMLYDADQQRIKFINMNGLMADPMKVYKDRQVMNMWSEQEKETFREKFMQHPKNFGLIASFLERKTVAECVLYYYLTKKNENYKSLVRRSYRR
Chain of ColG-CU (Q9X721 111-786): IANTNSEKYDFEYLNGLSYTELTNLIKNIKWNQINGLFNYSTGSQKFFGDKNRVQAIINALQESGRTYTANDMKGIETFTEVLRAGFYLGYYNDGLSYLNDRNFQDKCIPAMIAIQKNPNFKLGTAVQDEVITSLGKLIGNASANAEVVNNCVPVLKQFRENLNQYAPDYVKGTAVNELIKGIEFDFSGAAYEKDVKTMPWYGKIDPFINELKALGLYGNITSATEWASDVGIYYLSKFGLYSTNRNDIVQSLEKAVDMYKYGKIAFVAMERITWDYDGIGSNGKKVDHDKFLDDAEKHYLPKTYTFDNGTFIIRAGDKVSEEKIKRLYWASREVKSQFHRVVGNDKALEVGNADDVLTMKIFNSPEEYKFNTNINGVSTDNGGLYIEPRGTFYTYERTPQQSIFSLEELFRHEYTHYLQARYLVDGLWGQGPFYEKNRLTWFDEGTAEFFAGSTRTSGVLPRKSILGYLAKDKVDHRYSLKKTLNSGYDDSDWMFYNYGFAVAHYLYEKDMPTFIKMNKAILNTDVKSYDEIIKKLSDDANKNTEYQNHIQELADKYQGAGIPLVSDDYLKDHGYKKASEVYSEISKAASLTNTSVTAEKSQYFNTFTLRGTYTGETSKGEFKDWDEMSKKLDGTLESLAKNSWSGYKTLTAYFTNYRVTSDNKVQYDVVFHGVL
Chain of ColA-CU (Q81BJ6 93-764): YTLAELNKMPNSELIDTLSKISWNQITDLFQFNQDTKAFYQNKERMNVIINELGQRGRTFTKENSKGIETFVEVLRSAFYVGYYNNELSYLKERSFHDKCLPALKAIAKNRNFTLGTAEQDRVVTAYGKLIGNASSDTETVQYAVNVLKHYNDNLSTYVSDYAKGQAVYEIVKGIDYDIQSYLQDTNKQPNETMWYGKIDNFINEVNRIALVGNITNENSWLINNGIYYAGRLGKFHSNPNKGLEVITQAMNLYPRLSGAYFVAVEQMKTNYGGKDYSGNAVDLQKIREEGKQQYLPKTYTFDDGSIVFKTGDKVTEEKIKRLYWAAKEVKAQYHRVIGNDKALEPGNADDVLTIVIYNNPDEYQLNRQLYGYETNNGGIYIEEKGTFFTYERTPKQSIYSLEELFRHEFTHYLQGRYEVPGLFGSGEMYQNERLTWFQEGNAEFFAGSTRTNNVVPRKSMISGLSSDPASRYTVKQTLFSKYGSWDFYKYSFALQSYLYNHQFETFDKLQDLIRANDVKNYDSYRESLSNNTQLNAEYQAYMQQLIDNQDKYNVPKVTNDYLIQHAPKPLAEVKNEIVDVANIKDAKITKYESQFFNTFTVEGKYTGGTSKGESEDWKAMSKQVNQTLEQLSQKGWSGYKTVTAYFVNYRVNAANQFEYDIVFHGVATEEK
T1 sequence (P08253 110-444 limits assumed): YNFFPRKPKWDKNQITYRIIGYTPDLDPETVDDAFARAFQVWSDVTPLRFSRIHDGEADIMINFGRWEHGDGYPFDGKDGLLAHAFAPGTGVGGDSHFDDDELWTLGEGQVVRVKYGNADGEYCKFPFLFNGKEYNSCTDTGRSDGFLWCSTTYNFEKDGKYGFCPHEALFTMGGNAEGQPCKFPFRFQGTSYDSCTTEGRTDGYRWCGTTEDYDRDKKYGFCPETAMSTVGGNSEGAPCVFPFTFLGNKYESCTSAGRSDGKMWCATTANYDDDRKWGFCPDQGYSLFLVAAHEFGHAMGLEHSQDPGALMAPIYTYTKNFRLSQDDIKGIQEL
T4 sequence (P08254 100-272 limits assumed): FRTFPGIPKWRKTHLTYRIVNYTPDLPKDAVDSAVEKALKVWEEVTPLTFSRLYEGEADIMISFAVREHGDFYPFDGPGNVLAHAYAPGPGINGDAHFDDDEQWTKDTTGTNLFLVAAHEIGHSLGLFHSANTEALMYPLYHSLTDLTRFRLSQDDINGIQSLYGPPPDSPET
Chain of COX-1 (P23219 24-599): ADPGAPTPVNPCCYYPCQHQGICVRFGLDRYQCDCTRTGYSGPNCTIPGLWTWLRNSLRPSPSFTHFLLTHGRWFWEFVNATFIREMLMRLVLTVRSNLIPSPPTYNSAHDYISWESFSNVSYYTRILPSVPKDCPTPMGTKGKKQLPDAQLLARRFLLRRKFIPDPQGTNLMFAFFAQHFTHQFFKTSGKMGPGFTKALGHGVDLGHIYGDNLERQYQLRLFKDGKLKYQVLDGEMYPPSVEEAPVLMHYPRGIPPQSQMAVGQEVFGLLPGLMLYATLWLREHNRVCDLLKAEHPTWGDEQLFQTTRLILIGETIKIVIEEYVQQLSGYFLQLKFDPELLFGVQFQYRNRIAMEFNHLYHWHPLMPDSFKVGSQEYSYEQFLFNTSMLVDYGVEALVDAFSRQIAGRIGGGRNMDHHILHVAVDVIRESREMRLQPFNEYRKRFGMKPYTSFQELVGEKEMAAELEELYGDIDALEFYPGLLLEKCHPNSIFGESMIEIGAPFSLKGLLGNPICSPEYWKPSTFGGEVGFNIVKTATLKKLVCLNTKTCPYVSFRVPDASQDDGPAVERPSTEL
Chain of TACE (ADAM-17) (P78536 215-824): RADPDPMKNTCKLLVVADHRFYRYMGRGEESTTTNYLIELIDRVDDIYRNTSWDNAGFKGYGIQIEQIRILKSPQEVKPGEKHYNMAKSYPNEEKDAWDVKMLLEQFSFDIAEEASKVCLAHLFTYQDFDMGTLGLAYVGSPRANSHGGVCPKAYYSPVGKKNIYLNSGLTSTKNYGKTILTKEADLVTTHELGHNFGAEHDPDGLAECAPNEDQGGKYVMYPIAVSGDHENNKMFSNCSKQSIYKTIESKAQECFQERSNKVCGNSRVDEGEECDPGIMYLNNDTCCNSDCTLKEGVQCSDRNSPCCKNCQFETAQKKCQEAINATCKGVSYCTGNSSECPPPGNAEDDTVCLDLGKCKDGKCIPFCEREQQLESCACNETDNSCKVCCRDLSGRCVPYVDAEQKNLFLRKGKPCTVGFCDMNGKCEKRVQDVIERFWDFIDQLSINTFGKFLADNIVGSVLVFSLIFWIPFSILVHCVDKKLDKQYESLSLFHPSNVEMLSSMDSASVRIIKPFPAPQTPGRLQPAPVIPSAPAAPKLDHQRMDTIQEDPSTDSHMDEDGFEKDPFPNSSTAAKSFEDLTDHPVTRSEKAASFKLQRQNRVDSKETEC
Chain of ColH-PD (Q46085 331-721 limits assumed): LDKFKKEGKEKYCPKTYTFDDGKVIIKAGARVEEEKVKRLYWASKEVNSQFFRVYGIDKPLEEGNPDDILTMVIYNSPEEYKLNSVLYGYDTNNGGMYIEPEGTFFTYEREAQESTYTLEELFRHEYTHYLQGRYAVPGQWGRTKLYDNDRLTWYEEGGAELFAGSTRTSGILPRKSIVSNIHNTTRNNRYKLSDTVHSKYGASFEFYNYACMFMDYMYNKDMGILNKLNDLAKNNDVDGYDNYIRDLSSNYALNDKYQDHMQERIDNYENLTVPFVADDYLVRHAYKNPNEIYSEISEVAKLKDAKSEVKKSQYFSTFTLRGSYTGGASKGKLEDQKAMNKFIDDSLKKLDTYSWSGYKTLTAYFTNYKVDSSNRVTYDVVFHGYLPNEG

In the case of `O=P(O)(O)c1nc2cc(Cl)c(Cl)cc2nc1P(=O)(O)O` [Compound 13, (6,7-Dichloroquinoxaline-2,3-diyl)bis(phosphonic acid)], the IC50 was above 200 µM in the series “in vitro [1]”; 100 µM in “in vitro [2]”; above 100 µM in the series “in vitro [4]”; above 100 µM against HDAC-3; 5.2 ± 0.4 µM at ColQ1-CU; above 100 µM on TACE (ADAM-17). Besides, the half-inhibitory concentration (IC50) at MMP-2 was 79 ± 2 µM; at HDAC-8, above 100 µM; against MMP-1 it was 53 ± 3 µM; on MMP-3 it was 33 ± 11 µM; against COX-1, above 100 µM. Besides, the inhibition at 100 µM came out at 71 ± 4% on ColA-CU, 98 ± 1% on ColQ1-CU (read-out: % Inhibition (ColQ1-CU) Mean), 68 ± 4% at ColG-CU and 83 ± 9% at ColH-PD. Moreover, in series [3], the “Concentration above which infected cells were sustained (attached, spindle shape)” value is above 25 µM. For the same compound, the entries for the “Increase in survival of infected larvae” value in series [5] (50 μM) and in series [5] (200 μM) were 5% and “about 35%”, respectively. Also, the “Survival of infected larvae vs control without inhibitor” value in [5] is on record as “ameliorated the survival of the larvae in a dose-dependent manner”. In series [6], the “Concentration giving complete inhibition of gelatinolytic activity” value stood at 200 µM.
Turning to `O=C(Nc1ccc(Cl)c(Cl)c1)c1ccc2nc(P(=O)(O)O)c(P(=O)(O)O)nc2c1` [Compound 14, (6-((3,4-Dichlorophenyl)carbamoyl)quinoxaline-2,3-diyl)bis(phosphonic acid)], the IC50 in the series “in vitro [1]” was above 100 µM; in “in vitro [2]” it was above 100 µM; in the series “in vitro [4]” it was above 100 µM; on HDAC-3 it was above 100 µM; against ColQ1-CU, 16 ± 1 µM; at TACE (ADAM-17), above 100 µM. In addition, the IC50 on MMP-2, at HDAC-8, against MMP-1, against MMP-3 and against COX-1 was above 100 µM each time. The inhibition at 100 µM at ColA-CU came out at 82 ± 2%; on ColG-CU it was 72 ± 3%; on ColH-PD it was 96 ± 2%. In [3], the “Concentration above which infected cells were sustained (attached, spindle shape)” value was above 25 µM. Moreover, the “Effect on survival of infected larvae” value in series [5] (25 μM) is “reduced effect”. Besides, the “Increase in survival of infected larvae” value in [5] (100 μM) is “around 50%”. For the same compound, the “Survival of infected larvae vs control without inhibitor” value in series [5] is recorded as “ameliorated the survival of the larvae in a dose-dependent manner”. The “Concentration giving complete inhibition of gelatinolytic activity” value in [6] is 100 µM.

Usually IC50 stands for the concentration at which inhibition is half-maximal. Low readings indicate inhibition by little substance, high ones a need for much substance. A word on the inhibition: it is the share of the control response that was lost under treatment.
